# Test results taken from article PMC5522996, “Big conductance calcium‐activated potassium channel openers control spasticity without sedation” (British Journal of Pharmacology, 2017).
# pIC50: −log10 of the molar value.
# Tests used:
# 5-HT1A = target: T1, 5-HT1A (Homo sapiens, UniProt P08908); test: Receptor binding profile of VSN16R; conditions: 10µM VSN16R
# T1 construct: purchased Cerep; Chantest; DiscoveRx; Multispan; MDS Pharma Services
# monoglycerol lipase = target: T2, monoglycerol lipase (Homo sapiens, UniProt Q99685); test: Receptor binding profile of VSN16R; conditions: 10µM VSN16R
# T2 construct: purchased Cerep; Chantest; DiscoveRx; Multispan; MDS Pharma Services
# VIP1 = target: T3, VIP1 (Homo sapiens, UniProt P32241); test: Receptor binding profile of VSN16R; conditions: 10µM VSN16R
# T3 construct: purchased Cerep; Chantest; DiscoveRx; Multispan; MDS Pharma Services
# hERG Kv11.1 K+ channel = target: T4, hERG Kv11.1 K+ channel (Homo sapiens, UniProt Q12809); test: Receptor binding profile of VSN16R; conditions: tested to 100 µM
# T4 construct: purchased Cerep; Chantest; DiscoveRx; Multispan; MDS Pharma Services
# rabbits = test: Reproductive toxicology in rabbits; assay type: in vivo, rabbit
# Procedure: (§1) Twenty‐eight day toxicology in rats and dogs for Investigational New Drug filing was performed by Charles Rivers (UK). Reproductive toxicology in rabbits was performed by Charles Rivers (Canada). Pharmacokinetic and/or toxicological doses ranged from 5 to 1000 mg·kg^−1 p.o. in Sprague Dawley male and female rats (n = 6‐26 per group), 50–200 mg·kg^−1 p.o. in male and female Beagle dogs (n = 6 per group) and 100–750 mg·kg^−1 p.o. in female New Zealand white rabbits (n = 9 per group). Results are expressed as mean ± SD.
# CYP450 1A2 = CYP450 1A2 (Homo sapiens, UniProt P05177); test: CYP450 inhibition of substrate binding
# From the text: IC50 Inhibition of substrate binding
# Inhibition of binding of either 3-cyano-7-ethoxycoumarin, dibenzylfluorescein or 7-benzyoxy-4-
# (trifluoromethyl) coumarin in human enzyme transfected BTI NN-5B1-4 cells or Sf9 insect cells or
# inhibition of dextromethorphan substrate to CYP450 2D6 in liver microsomes.
# NK3 = target: T5, NK3 (Homo sapiens, UniProt P29371); test: Receptor binding profile of VSN16R; conditions: 10µM VSN16R
# T5 construct: purchased Cerep; Chantest; DiscoveRx; Multispan; MDS Pharma Services
# Na+ channel (site 2) = test: Receptor binding profile of VSN16R; design: species or system human; conditions: 10µM VSN16R
# normal animals = test: Muscle tone in normal animals (resistance to flexion); assay type: in vivo, mouse; conditions: 40 mg·kg^−1 p.o.
# dogs = test: 28 day toxicology in dogs (50, 100, 200mg/kg p.o.); assay type: in vivo, dog
# Procedure: as §1
# Tissue Analysed Result of Tissue Analysis in Rats Result of Tissue Analysis in Dogs Artery, Aorta Negative Negative
# Bone Marrow femur Negative Negative
# Bone Marrow sternum Negative Negative
# Bone, Sternum Negative Negative
# Epididymus Negative Negative
# Adrenal Gland Negative Negative
# Mammary Grand Negative Negative
# Parathyroid Gland Negative Negative
# Pituitary Gland Negative Negative
# Prostate Gland Negative Negative
# Salivary Gland Negative Negative
# Seminal Vesicle Gland Negative Negative
# Gut associated lymphoid Negative Negative
# Large Intestine caecum Negative Negative
# Large Intestine colon Negative Negative
# Large Intestine rectum Negative Negative
# Mandibular Lymph Node Negative Negative
# Mesenteric Lymph Node Negative Negative
# Skeletal Muscle Negative Negative
# Nasal Cavity Negative Negative
# Sciatic Nerve Negative Negative
# Oesophagus Negative Negative
# Pancreas Negative Negative […]
# A3 = target: T6, A3 (Homo sapiens, UniProt P0DMS8); test: Receptor binding profile of VSN16R; conditions: 10µM VSN16R
# T6 construct: purchased Cerep; Chantest; DiscoveRx; Multispan; MDS Pharma Services
# [1] = system: spastic ABH mice with EAE; test: Spasticity: resistance to hindlimb flexion against a strain gauge
# CCR1 = target: T7, CCR1 (Homo sapiens, UniProt P32246); test: Receptor binding profile of VSN16R; conditions: 10µM VSN16R
# T7 construct: purchased Cerep; Chantest; DiscoveRx; Multispan; MDS Pharma Services
# GPR6 = target: T8, GPR6 (Homo sapiens, UniProt P46095); test: Receptor binding profile of VSN16R; conditions: 10µM VSN16R
# T8 construct: purchased Cerep; Chantest; DiscoveRx; Multispan; MDS Pharma Services
# EDG6 = target: T9, EDG6 (Homo sapiens, UniProt O95977); test: Receptor binding profile of VSN16R; conditions: 10µM VSN16R
# T9 construct: purchased Cerep; Chantest; DiscoveRx; Multispan; MDS Pharma Services
# GABA (non-selective) = test: Receptor binding profile of VSN16R; design: species or system human; conditions: 10µM VSN16R
# GPR55‐deficient ABH mice = test: Spasticity in GPR55‐deficient mice; assay type: in vivo, mouse; conditions: 10 mg·kg^−1 i.v.
# GPR23 = target: T10, GPR23 (Homo sapiens, UniProt Q99677); test: Receptor binding profile of VSN16R; conditions: 10µM VSN16R
# T10 construct: purchased Cerep; Chantest; DiscoveRx; Multispan; MDS Pharma Services
# EDG7 = target: T11, EDG7 (Homo sapiens, UniProt Q9UBY5); test: Receptor binding profile of VSN16R; conditions: 10µM VSN16R
# T11 construct: purchased Cerep; Chantest; DiscoveRx; Multispan; MDS Pharma Services
# V1a = target: T12, V1a (Homo sapiens, UniProt P37288); test: Receptor binding profile of VSN16R; conditions: 10µM VSN16R
# T12 construct: purchased Cerep; Chantest; DiscoveRx; Multispan; MDS Pharma Services
# β1 = target: T13, β1 (Homo sapiens, UniProt P08588); test: Receptor binding profile of VSN16R; conditions: 10µM VSN16R
# T13 construct: purchased Cerep; Chantest; DiscoveRx; Multispan; MDS Pharma Services
# CB2 = target: T14, CB2 (Homo sapiens, UniProt P34972); test: Receptor binding profile of VSN16R
# T14 construct: purchased Cerep; Chantest; DiscoveRx; Multispan; MDS Pharma Services
# GABAA = test: Receptor binding profile of VSN16R; design: species or system human; conditions: 10µM VSN16R
# T14 sequence (P34972 whole entry): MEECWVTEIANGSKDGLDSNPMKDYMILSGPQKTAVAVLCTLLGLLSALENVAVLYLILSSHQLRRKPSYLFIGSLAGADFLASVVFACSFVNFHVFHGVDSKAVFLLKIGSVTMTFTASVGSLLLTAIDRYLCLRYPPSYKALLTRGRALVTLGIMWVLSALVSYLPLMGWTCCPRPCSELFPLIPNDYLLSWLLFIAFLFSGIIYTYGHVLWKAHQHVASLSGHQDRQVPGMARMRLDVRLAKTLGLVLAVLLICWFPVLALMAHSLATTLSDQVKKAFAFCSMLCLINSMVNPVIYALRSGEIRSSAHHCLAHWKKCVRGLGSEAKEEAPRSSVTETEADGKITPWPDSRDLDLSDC
# T5 sequence (P29371 whole entry): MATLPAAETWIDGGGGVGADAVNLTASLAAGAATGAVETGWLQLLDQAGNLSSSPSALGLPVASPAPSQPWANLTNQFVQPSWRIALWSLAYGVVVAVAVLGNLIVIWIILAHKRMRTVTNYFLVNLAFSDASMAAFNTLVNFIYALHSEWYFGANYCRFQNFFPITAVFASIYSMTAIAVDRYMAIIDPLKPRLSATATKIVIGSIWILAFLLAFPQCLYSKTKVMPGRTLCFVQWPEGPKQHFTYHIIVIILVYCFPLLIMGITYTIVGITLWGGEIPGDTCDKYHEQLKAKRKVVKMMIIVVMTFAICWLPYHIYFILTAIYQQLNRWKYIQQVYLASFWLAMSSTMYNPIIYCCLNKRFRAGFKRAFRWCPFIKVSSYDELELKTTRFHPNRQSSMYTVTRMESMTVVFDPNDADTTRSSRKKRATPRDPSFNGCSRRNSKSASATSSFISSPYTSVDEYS
# T6 sequence (P0DMS8 whole entry): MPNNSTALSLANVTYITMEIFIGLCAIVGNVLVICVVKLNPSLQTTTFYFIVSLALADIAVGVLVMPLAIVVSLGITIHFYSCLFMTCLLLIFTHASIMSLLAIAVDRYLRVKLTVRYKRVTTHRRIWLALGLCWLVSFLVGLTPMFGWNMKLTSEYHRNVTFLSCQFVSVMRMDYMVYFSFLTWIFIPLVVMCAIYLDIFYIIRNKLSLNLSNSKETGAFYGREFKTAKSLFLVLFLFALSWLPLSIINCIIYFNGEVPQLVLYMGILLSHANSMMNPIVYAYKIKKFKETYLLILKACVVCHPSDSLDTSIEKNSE
# T11 sequence (Q9UBY5 whole entry): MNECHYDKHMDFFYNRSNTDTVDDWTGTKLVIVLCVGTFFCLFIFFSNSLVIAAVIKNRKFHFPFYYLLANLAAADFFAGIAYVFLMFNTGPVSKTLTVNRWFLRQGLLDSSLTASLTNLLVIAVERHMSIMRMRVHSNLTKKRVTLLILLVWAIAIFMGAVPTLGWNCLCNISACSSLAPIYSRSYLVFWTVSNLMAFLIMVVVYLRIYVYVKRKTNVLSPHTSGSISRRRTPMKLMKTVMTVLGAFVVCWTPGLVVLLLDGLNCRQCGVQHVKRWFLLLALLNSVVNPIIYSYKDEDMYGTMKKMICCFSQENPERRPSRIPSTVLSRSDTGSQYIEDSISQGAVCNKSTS
# T4 sequence (Q12809 whole entry): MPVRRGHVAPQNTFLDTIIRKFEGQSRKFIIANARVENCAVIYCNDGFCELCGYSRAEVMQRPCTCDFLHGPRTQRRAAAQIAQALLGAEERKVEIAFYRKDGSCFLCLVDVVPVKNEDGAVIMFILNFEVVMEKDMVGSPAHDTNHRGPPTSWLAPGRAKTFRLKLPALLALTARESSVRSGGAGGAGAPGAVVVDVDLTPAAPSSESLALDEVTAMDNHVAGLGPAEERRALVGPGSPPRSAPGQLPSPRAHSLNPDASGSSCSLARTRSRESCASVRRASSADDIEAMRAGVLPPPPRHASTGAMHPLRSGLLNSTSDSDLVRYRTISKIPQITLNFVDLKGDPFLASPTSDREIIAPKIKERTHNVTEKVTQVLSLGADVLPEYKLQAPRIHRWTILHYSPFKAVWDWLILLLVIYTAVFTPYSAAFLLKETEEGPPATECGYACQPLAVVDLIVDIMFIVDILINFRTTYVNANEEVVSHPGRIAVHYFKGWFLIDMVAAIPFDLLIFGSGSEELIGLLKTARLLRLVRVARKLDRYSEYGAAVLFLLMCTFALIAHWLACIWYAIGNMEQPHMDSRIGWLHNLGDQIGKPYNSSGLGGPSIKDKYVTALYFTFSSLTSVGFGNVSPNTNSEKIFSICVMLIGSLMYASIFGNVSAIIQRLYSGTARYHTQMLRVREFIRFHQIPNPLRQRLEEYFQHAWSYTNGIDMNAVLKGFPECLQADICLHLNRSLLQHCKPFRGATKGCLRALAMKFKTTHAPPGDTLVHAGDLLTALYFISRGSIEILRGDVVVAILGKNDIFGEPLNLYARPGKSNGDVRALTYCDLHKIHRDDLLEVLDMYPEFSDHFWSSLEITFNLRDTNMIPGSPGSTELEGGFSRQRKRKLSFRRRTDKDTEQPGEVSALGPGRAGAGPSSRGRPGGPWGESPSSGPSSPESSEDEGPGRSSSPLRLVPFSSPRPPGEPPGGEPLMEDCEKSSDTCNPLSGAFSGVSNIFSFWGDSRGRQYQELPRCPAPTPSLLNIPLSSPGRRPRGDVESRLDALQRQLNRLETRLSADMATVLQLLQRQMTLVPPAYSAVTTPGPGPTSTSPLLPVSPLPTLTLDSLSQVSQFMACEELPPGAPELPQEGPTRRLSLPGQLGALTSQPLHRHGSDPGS
# T2 sequence (Q99685 whole entry): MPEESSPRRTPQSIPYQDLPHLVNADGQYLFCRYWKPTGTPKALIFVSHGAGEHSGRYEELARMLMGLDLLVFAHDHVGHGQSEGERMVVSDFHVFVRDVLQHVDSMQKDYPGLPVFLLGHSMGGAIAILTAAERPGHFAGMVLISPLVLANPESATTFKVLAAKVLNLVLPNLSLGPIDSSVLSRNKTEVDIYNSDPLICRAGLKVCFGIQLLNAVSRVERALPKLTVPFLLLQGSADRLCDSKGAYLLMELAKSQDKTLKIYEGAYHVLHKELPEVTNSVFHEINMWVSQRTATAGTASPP
# T13 sequence (P08588 whole entry): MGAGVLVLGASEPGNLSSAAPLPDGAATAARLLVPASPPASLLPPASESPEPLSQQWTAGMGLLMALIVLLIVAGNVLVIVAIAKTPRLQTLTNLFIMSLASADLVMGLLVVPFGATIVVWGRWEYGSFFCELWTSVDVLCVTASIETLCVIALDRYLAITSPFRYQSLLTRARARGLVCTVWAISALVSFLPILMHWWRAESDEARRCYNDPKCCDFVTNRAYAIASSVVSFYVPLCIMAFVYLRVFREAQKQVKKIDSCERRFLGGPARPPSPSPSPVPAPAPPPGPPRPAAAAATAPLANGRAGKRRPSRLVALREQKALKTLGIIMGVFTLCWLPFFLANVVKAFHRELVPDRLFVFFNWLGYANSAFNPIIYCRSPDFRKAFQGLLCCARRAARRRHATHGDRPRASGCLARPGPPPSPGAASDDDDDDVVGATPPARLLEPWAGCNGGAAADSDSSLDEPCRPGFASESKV
# T10 sequence (Q99677 whole entry): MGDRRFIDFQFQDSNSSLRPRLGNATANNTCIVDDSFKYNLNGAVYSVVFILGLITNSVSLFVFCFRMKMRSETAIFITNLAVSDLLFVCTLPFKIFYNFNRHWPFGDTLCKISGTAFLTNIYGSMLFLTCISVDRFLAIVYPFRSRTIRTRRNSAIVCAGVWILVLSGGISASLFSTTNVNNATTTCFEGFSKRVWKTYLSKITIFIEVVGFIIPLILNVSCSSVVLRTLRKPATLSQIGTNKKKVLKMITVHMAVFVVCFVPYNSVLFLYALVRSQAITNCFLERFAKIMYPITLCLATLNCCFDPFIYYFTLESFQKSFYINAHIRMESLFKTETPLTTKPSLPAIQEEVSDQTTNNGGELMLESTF
# T12 sequence (P37288 whole entry): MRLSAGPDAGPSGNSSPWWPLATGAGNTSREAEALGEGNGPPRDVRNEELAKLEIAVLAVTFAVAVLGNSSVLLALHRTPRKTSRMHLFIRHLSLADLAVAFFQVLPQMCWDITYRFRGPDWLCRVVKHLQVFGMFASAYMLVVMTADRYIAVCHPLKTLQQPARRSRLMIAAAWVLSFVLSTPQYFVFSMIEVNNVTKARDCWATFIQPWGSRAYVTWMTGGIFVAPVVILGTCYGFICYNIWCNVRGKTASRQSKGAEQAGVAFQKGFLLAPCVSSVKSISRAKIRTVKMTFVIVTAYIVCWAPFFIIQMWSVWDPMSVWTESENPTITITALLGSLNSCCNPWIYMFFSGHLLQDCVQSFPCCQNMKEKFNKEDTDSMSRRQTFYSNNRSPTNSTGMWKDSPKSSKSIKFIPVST
# T9 sequence (O95977 whole entry): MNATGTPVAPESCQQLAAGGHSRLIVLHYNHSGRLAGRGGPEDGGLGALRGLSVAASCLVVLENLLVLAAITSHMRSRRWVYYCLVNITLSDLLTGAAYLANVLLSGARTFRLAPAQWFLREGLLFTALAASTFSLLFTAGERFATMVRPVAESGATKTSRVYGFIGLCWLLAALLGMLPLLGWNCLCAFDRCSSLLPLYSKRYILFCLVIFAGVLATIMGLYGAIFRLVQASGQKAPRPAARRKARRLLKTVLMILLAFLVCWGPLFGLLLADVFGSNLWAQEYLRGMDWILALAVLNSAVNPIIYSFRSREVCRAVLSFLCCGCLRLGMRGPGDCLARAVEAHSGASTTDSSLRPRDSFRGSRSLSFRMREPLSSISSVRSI
# T8 sequence (P46095 whole entry): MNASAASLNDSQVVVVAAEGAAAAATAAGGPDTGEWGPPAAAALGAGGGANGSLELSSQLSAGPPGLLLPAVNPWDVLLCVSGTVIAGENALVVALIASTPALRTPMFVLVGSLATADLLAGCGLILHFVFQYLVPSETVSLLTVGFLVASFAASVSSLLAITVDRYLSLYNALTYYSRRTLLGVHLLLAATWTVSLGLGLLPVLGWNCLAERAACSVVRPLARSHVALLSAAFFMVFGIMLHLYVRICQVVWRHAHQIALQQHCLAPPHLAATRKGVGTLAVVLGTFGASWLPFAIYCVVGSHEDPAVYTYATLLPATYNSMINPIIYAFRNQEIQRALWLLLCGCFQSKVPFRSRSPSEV
compound,measurement,setting,value
C[C@H](CO)NC(=O)c1cccc(/C=C\CCCC(=O)N(C)C)c1 [VSN16R],Activity,5-HT1A,Negligible Activity
same,Activity,monoglycerol lipase,Negligible Activity
same,Activity,VIP1,Negligible Activity
same,Activity,hERG Kv11.1 K+ channel,Negligible Activity
same,Reproductive toxicology safe level,rabbits,> 500 mg·kg^−1
same,pIC50,CYP450 1A2,< 5.00
same,Activity,NK3,Negligible Activity
same,Activity,Na+ channel (site 2),Negligible Activity
same,Change (increase) of muscle tone from baseline,normal animals,9.1 ± 6.3%
same,Result of Tissue Analysis in Dogs,"dogs; dog, in vivo",Negative
same,NOEL,"dogs; p.o., dogs",100 mg/kg
same,Activity,A3,Negligible Activity
same,Inhibition of spasticity,[1]; 0.5 mg·kg^−1 p.o.,failed to produce rapid muscular relaxation and inhibition of spasticity
same,Inhibition of spasticity,[1]; 1 mg·kg^−1 p.o.,significant therapeutic activity was evident within 10 min
same,Inhibition of spasticity,[1]; 5 mg·kg^−1 i.v.,slightly more active than VSN16S
same,Inhibition of spasticity,[1]; 5 mg·kg^−1 p.o.,significant therapeutic activity was evident within 10 min
same,"Mean group score, resistance to flexion (±SD), one mean per animal","[1]; 5 mg·kg^−1 p.o., 30 min",0.224 ± 0.067 N
same,"Mean group score, resistance to flexion (±SD), one mean per animal","[1]; 5 mg·kg^−1 p.o., 60 min",0.214 ± 0.071 N
same,Therapeutic effect after repeated daily administration,[1]; 40 mg·kg^−1 p.o. for 7 days,therapeutic effect was sustained
same,Drop of resistance to flexion from baseline,"[1]; 40 mg·kg^−1 p.o., visibly spastic animals",17.8 ± 5.3%
same,Resistance to flexion force,"[1]; 2 weeks after cessation of weekly treatment, mean ± SEM",0.157 ± 0.045 N
same,Duration of inhibition of spasticity,[1]; single dose of 40 mg·kg^−1 p.o.,over 6 h
same,Activity,CCR1,Negligible Activity
same,Activity,GPR6,Negligible Activity
same,Activity,EDG6,Negligible Activity
same,Activity,GABA (non-selective),Negligible Activity
same,Inhibition of spasticity,GPR55‐deficient ABH mice,continued to inhibit spasticity
same,Activity,GPR23,Negligible Activity
same,Activity,EDG7,Negligible Activity
same,Activity,V1a,Negligible Activity
same,Activity,β1,Negligible Activity
same,Activity,CB2; 10µM VSN16R,Negligible Activity
same,Binding to CB2 receptors,CB2; tested to 10 μM,did not bind
same,Activity,GABAA,Negligible Activity
